The results in this text go back to paper PMC6934184, “Selective DNA-PKcs inhibition extends the therapeutic index of localized radiotherapy and chemotherapy” (The Journal of Clinical Investigation, 2019).

The experiment addresses T1, ROCK1 (Homo sapiens, UniProt Q13464).
T1 construct: purchased Thermo Fisher Scientific (Life Technologies) SelectScreen
As to the kind of experiment: SelectScreen Z'LYTE. It is filed as biochemical. The essentials: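 Percent values come from Thermo SelectScreen profiling of NU5455, combining activity and binding assays. CSF1R was run in Z'LYTE format at Km app ATP, and CAMK1 in Adapta format with ATP listed at 10.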

T1 sequence (Q13464 whole entry): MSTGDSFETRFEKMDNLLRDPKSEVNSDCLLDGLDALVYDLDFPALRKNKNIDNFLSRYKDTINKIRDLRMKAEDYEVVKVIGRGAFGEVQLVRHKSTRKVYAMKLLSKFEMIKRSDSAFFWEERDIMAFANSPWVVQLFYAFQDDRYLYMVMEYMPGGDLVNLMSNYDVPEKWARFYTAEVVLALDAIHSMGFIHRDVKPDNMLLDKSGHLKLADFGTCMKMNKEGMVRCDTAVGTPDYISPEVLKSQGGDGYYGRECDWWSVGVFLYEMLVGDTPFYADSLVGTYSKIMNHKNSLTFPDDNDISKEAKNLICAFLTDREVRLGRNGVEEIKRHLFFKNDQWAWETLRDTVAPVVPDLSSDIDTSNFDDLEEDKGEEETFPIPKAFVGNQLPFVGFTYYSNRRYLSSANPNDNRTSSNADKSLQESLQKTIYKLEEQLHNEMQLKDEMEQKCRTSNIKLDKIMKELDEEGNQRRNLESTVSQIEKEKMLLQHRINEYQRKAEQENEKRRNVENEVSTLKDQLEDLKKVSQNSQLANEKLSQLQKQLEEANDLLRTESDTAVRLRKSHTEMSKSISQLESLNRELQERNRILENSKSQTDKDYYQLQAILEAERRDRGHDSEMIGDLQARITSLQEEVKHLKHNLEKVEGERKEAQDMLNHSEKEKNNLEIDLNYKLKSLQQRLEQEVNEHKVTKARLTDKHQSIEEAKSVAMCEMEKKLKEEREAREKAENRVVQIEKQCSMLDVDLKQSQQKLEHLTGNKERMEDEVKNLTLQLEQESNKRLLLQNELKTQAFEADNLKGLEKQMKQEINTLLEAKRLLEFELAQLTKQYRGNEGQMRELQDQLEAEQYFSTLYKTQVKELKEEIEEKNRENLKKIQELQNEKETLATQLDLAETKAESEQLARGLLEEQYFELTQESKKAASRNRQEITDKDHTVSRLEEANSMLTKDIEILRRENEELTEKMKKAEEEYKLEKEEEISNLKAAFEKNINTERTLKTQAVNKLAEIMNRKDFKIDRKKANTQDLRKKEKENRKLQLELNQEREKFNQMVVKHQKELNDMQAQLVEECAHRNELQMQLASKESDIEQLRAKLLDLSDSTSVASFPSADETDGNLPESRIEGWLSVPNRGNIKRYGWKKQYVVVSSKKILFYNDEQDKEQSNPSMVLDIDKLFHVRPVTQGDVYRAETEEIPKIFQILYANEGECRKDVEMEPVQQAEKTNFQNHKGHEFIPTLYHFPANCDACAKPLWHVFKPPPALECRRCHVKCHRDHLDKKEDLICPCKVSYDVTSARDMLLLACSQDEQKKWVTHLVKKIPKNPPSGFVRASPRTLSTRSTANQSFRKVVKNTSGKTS

In the case of `CN(C(=O)CN1CCOCC1)c1ccc2sc3c(-c4cccc5c(=O)cc(N6CC7CCC(C6)O7)oc45)cccc3c2c1` [NU5455], the inhibition (commonly the drop in the measured response relative to a control, in per cent) at 1 µM was -9.5%.
